Measured values from article PMC2774256 (Bioorganic & medicinal chemistry, 2009).
Square brackets hold non-standard residues; d marks the D form. Ends that are not written are not given here. * marks the point of attachment. dNMeF = CN[C@H](Cc1ccccc1)C(=O)O; Cha = N[C@@H](CC1CCCCC1)C(=O)O; NMeL = CN[C@@H](CC(C)C)C(=O)O; dNMeV = CN[C@@H](C(=O)O)C(C)C; NMeV = CN[C@H](C(=O)O)C(C)C; Cbz = O=C(OCc1ccccc1)*; Bn = c1ccc(C*)cc1

How the values were obtained:
[1] = tested on: PL-45 pancreatic cancer cells; assay: 3H-thymidine incorporation/growth inhibition assay
[2] = tested on: BxPC-3 pancreatic cancer cells; assay: 3H-thymidine incorporation/growth inhibition assay

F[dNMeF]V[Cha]L [Compound 49]
cytotoxicity / growth inhibition in words [1]: underwhelming cytotoxicity | cytotoxicity / growth inhibition in words [2]: underwhelming cytotoxicity

FLVK(Cbz)[NMeL] [Compound 68]
cytotoxicity / growth inhibition in words [1]: not toxic | cytotoxicity / growth inhibition in words [2]: not toxic

F[dNMeF][dV]LL [Compound 32]
cytotoxicity / growth inhibition in words [1]: cytotoxic | cytotoxicity / growth inhibition in words [2]: very poor cytotoxicity

FL[NMeV]L[dF] [Compound 62]
cytotoxicity / growth inhibition in words [1]: relatively non-toxic | cytotoxicity / growth inhibition in words [2]: relatively non-toxic

FL[dV][dL]L [Compound 37]
cytotoxicity / growth inhibition in words [1]: not potent | cytotoxicity / growth inhibition in words [2]: not potent

[dF]L[NMeV][dL][dF] [Compound 61]
cytotoxicity / growth inhibition in words [1]: relatively non-toxic | cytotoxicity / growth inhibition in words [2]: relatively non-toxic

cyclo(FL[dNMeV][dK][dF]) [Compound 64]
cytotoxicity / growth inhibition in words [1]: not toxic | cytotoxicity / growth inhibition in words [2]: not toxic

[dY][dNMeF]VLL [Compound 15]
cytotoxicity / growth inhibition in words [1]: cytotoxic | cytotoxicity / growth inhibition in words [2]: very poor cytotoxicity

F[dNMeF]V[Cha]S(Bn) [Compound 60]
cytotoxicity / growth inhibition in words [1]: not effective | cytotoxicity / growth inhibition in words [2]: not effective
